Data set [1] in a line: Expert taster flavor and aroma levels (threshold, recognition, fatty flavor) in regular or soluble coffee brew. The conditions noted are these: about 1 to 1.5% coffee solids brew; for Recognition Level: woody note. From the text:
The threshold level is that quantity of flavoring producing a change in cup flavor and aroma, but a change which cannot be described as a particular flavor. The recognition level is the quantity of flavoring which can be defined as imparting a woody note to the brew. The fatty level is that point where the undesirable fatty flavor becomes apparent and detracts from the woody character of the flavoring noted at lower levels.

The nature of data set [2]: Expert panel flavor evaluation in instant Maxwell House coffee (Example XVII). The following applies: two parts per billion; 1.35% coffee solids. The text has this:
An expert panel flavor evaluation was made of trans-2-nonenal, purified as in Example XVI, at a level of two parts per billion in instant Maxwell House brand soluble coffee at a 1.35% coffee solids concentration.

Data set [3] is described as follows: General flavor characterization by flavor experts. The conditions noted are these: 50 ppm or higher.
A short description of data set [4]: Flavor evaluation in water and soluble coffee (Example XVI). From the text: A ten percent ethanolic solution of trans-2-nonenal (Compagnie Parento, Croton-on-Hudson, New York) was passed through a Perkin-Elmer model 900 gas chromatography unit having a 6-foot by 1/8 inch column packed with 10% diethylene glycol succinate polyester on 80/90 Anakrom ABS.
Data set [5] is described as follows: Evaluation in various foodstuffs versus control (Example XXV). Here is the method: To various foodstuffs is added minute amounts of the enhancing compounds of this invention at the proportions indicated. The foodstuffs are then evaluated by comparison to a control not containing the enhancer.
Data set [6] can be described thus: Taste comparison in instant Postum beverage (Example XXVI). The method, then:
A solution of trans-2-nonenal was prepared by dissolving 20 mg of the aldehyde in 50 ml of ethanol. One half of a milliliter of the resulting solution was then dissolved in 50 ml of spring water to yield a 0.2 mg/50 ml solution. The spring water solution was employed to prepare enhanced instant Postum by adding a sufficient amount to two grams of Postum dissolved in 200 ml of boiling spring water to give 5, 10, 20, and 30 ppb concentrations of nonenal in the hot Postum beverage. These beverages were compared with a control of 2 grams Postum dissolved in 200 ml boiling spring water by several expert tasters.

Data set [7] in a line: Triangular odd cup flavor evaluation of retention on spray drying of coffee extract (Example XXI). The data set is classed as physicochemical. The method, then: To 500 ml of distilled water is added 2.34 mg of trans-2-nonenal dissolved in 1 ml of ethanol. The aqueous mix is added to 40 pounds of coffee extract (24.5% solids) and the mixture is spray dried.
Unaromatized extract is spray dried umder equivalent conditions for use as a control. A flavor evaluation is made by dissolving 3.25 g of the aromatized coffee in eight ounces of hot water. Control cups are prepared by dissolving in each cup 3.25 g of control coffee in eight ounces of hot water and then adding thereto 10 microliters of a solution of 0.24 mg trans-2-nonenal in 5 ml of water.

The nature of data set [8]: Taste comparison in freeze dried Maxim soluble coffee (Example XIII).
Data set [9] can be described thus: Flavor evaluation of retention on freeze drying of coffee extract (Example XX). The conditions noted are these: theoretical 2 ppb. In kind it is physicochemical. Here is the method: Trans-2-nonenal (5 mg in one ml of ethanol) is added to 500 ml of distilled water and the aqueous mixture poured into 52 pounds of coffee extract of 28.2% coffee solids. The coffee-nonenal mixture is stirred and then poured into trays and frozen to form 3/8 inch thick slabs. Control slabs are also prepared from the same extract without the addition of flavors.
The slabs are freeze dried in a 50 square foot Stokes Freeze Drier under 150 microns pressure. […] Condenser temperature is maintained at -40°F.
A flavor evaluation is made by dissolving 0.65 gms of trans-2-nonenal aromatized freeze dried coffee and 2.60 gms of freeze dried control in eight bunces of hot water to give a theoretical 2 ppb concentration. Control cups are prepared by dissolving 3.25 gms of freeze dried control coffee in eight ounces of hot water and adding thereto 10 microliters of a 5 ml aqueous solution containing 0.25 mg trans-2-nonenal to give a 2 ppb concentration.

Data set [10] is described as follows: Flavor effect in whisky and carbonated and non-carbonated beverages.
Data set [11] in a line: Flavor comparison in 100% Robusta spray dried soluble coffee (Example XXIV). The following applies: 2 ppb.
Data set [12] is described as follows: Flavor comparison in Sanka decaffeinated soluble coffee (Example XVIII). The following applies: 2 ppb.
Data set [13] can be described thus: Taste comparison in freeze dried Maxim soluble coffee with steam generated aroma (Example XIV). The conditions noted are these: 2 ppb.
Data set [14] can be described thus: Taste comparison in spray dried instant Maxwell House coffee containing synthetic winey, buttery flavor (Example XII). The conditions noted are these: 2 ppb; 1.35% coffee solids brew. The text has this:
Spray dried instant Maxwell House brand coffee containing a synthetic, winey, buttery flavor was compared to an identical sample containing an additional 2ppb trans-2-nonenal.

A short description of data set [15]: Taste comparison in instant Maxwell House coffee beverage (Example XI). The following applies: for Taste comparison with control: 1.35% coffee solids (Example XIA). The text has this: A. A taste comparison was made of instant Maxwell House brand coffee beverage containing 1.35% coffee solids enhanced with 1 ppb and 2 ppb trans-2-nonenal.
B. Example XIA was repeated employing a broader range of flavor enhancement.

Entries after “also recorded” stand apart in the source; their conditions may differ.

As for `CCCCCC/C=C/C1OCCO1` [1-Octenyl-1-dioxolane, trans-1-octenyl-2-dioxolane], in data set [1], the “Threshold Level” value is recorded as 0.3 ppb, the “Undesired Fatty Flavor Becoming Apparent” value amounted to 1000 ppb and the “Recognition Level” value came out at 0.8 ppb.

Turning to `CCCCCC/C=C\COC(C)=O` [cis-2-nonenyl acetate], in data set [1], the “Threshold Level” value was determined as 50 ppb, the “Undesired Fatty Flavor Becoming Apparent” value is 1500 ppb and the “Recognition Level” value is listed as 150 ppb.

Take `CCCCCC/C=C/C=O` [trans-2-nonenal]: the “Expert panel flavor evaluation” value in data set [2] was “slight spent grounds flavor which improved the regular brewed character of the coffee; also recorded: desirable blending or mixing of flavor and a secondary aromatic flavor similar to that produced by the addition of steam generated aroma”. Further, the “Flavor when tasted at conventional flavor concentrations” value in data set [3] is reported as “unpleasant, rancid fat flavor”. The Flavor in water entry in [4] (2 ppb and 20 ppb in water) is “regular coffee flavor characterized by experts as woody or spent grounds”. Further, the “Concentration at which expert tasters find undesirable flavors” value in data set [4] (not apparent to less skilled tasters) is on record as “about 16 ppm”. Moreover, the Evaluation result in data set [5] (Ex. 1 Cola beverage, 2 ppb) is recorded as “Woody”; in data set [5] (Ex. 2 Pear nectar, 1 ppb), “Increased pear flavor”; in data set [5] (Ex. 3 Ginger ale, 2 ppb), “Woody”; in data set [5] (Ex. 5 Cranberry juice, 2 ppb), “Woody”; in [5] (Ex. 7 Condensed beef broth, 2 ppb), “High woody”; in data set [5] (Ex. 8 Root Beer beverage, 1 ppb), “Enhanced flavor”. Moreover, the Evaluation entry in data set [5] (Ex. 8 Root Beer beverage, 2 ppb) is “High woody”; in [5] (Ex. 9 Creme Soda, 2 ppb), “High woody”; in data set [5] (Ex. 11 Cherry gelatin dessert, 2 ppb) it was “Woody”; in data set [5] (Ex. 12 Artificially sweetened cola beverage, 2 ppb), “Woody”; in data set [5] (Ex. 13 Meat broth, 1 ppb), “Higher flavor impact”. In data set [6], the “Effect on molasses flavor and woody flavor of Postum” value was “reduced appreciably the characteristic molasses flavor of Postum and imparted a slight woody flavor”. Also, the “Effect on sweet, cereal taste of Postum” value in data set [6] is on record as “significant reduction in the sweet, cereal taste of the beverage”. Besides, the Taste preference entry in [6] (5 ppb and 10 ppb) is reported as “preferred”. Besides, the “Loss during spray drying” value in data set [7] was “no significant loss of trans-2-nonenal during spray drying”. Moreover, in [7] (triangular, odd cup flavor evaluation), the “Difference between aromatized and control cups” value is given as “no difference between the cups”. Moreover, the “Taste comparison with control” value in data set [8] (1 ppb) is “while woodiness was not evident, there was an improved balanced cup flavor and a reduction in sourness”; in [8] (2 ppb), “improved woody regular coffee note. In addition, the typically winey and buttery notes of the coffee were better balanced and the typical sourness of the brew was masked”; in data set [15] (1 ppb), “did not give a detectable woody flavor, but did balance or blend the coffee flavor and masked the caramel and acid flavor of the control”; in data set [15] (2 ppb), “improved woody regular coffee flavor and lacked the typical caramel and acid notes of the control”. Further, the “Loss of aroma during freeze drying” value in data set [9] is reported as “slight loss of trans-2-nonenal aroma during freeze drying”. In data set [9] (after freeze drying), the “Woody flavor of freeze dried aromatized sample relative to control” value was “about ninety”. For the same compound, the “Threshold Level” value in data set [1] is recorded as 0.05-0.2 ppb. Besides, the “Undesired Fatty Flavor Becoming Apparent” value in data set [1] worked out at 16 ppb. In [1], the “Recognition Level” value is 0.4-0.6 ppb. The Flavor in beverages entry in data set [10] is “low level woody note not detectable as coffee flavor which enhances the basic flavor of the beverage”. Besides, the “Flavor comparison with control” value in [11] is “improved woody cup flavor and aroma”; in data set [12], “improved woody flavor and good balance of cup flavor and aroma”; in data set [13], “very good regular coffee flavor, the brew having improved cup flavor and lacking sourness when compared to the control”. Besides, in data set [14], the “Flavor comparison with identical sample without additive” value was “very desirable balanced flavor, having prominent winey, buttery and woody regular coffee notes”. Also, the “Flavor Comments” value in data set [15] (0.2 ppb in the brew) is “detectable subtle flavor”; in [15] (0.4 ppb in the brew), “subtle recognition of woodiness”; in data set [15] (0.6 ppb in the brew), “definite recognition of woodiness”; in data set [15] (1 ppb in the brew) it was “woody and smoother”; in [15] (2 ppb in the brew), “woody and groundsy”; in data set [15] (8 ppb in the brew), “high woody impact”. For the same compound, the “Flavor Comments” value is “tallowy flavor” in data set [15] (16 ppb in the brew); “burnt, fatty” in data set [15] (30 ppb in the brew); “burnt, fatty and rancid” in data set [15] (40 ppb in the brew).

As for `CCCCCC/C=C/C(OCC)OCC` [trans-2-nonene diethyl acetal], in data set [1], the “Threshold Level” value was 0.02 ppb, the “Undesired Fatty Flavor Becoming Apparent” value stood at 1200 ppb and the “Recognition Level” value is on record as 0.03 ppb.

For `CCCCCC/C=C/C(OC)OC` [trans-2-nonene dimethyl Acetal, trans-2-nonene dimethyl acetal], in [1], the “Threshold Level” value worked out at 0.03 ppb, the “Undesired Fatty Flavor Becoming Apparent” value is reported as 800 ppb and the “Recognition Level” value is listed as 0.08 ppb.

Consider `CCCCCC/C=C/COC(C)=O` [trans-2-nonenylacetate, Trans-2-nonenyl acetate], for which, in data set [1], the “Threshold Level” value is recorded as 100 ppb, the “Undesired Fatty Flavor Becoming Apparent” value worked out at 1500 ppb and the “Recognition Level” value was 200 ppb.

The values are drawn from US3962321A, “Enhancement of coffee flavor” (General Foods Corporation, priority 1973, dated 1976).
